These results are taken from patent US9238656B2, “Imidazo[4,5-b]pyridine derivatives as ALK and JAK modulators for the treatment of proliferative disorders” (priority 2012, dated 2016).

Structures are written as SMILES.

For data set [1] the following is noted: 30 mg BID, kidney allograft recipients; cited from earlier work.
The target of data set [2] is baculovirus-expressed ALK (Homo sapiens, UniProt Q9UM73). As to the kind of experiment: ALK kinase inhibition, TRF/ELISA. The conditions noted are these: read-out: ALK Potency. In kind it is biochemical. An outline of the steps:
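Plates were coated with GST-PLC-γ substrate (10 μg/mL) and the reaction was started with 30 ng/mL ALK, running 15 min at 37° C. Phosphotyrosine was detected by time-resolved fluorescence with Eu-labeled PT66 antibody. IC50s came from variable-slope sigmoidal fits of percent inhibition versus log concentration.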

The target of data set [3] is baculovirus-expressed JAK2 kinase (Homo sapiens, UniProt O60674). As to the kind of experiment: biochemical. The conditions noted are these: 0.2 μM ATP; read-out: JAK2 Potency. In a few lines:
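Time-resolved fluorescence kinase assay using 15 ng/mL baculovirus-expressed JAK2 on Neutravidin-captured biotinylated 15-mer peptide substrate, reaction 20 min at room temperature. IC50 from percent inhibition versus log concentration, sigmoidal variable-slope fit.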

baculovirus-expressed ALK, sequence (Q9UM73 19-1620): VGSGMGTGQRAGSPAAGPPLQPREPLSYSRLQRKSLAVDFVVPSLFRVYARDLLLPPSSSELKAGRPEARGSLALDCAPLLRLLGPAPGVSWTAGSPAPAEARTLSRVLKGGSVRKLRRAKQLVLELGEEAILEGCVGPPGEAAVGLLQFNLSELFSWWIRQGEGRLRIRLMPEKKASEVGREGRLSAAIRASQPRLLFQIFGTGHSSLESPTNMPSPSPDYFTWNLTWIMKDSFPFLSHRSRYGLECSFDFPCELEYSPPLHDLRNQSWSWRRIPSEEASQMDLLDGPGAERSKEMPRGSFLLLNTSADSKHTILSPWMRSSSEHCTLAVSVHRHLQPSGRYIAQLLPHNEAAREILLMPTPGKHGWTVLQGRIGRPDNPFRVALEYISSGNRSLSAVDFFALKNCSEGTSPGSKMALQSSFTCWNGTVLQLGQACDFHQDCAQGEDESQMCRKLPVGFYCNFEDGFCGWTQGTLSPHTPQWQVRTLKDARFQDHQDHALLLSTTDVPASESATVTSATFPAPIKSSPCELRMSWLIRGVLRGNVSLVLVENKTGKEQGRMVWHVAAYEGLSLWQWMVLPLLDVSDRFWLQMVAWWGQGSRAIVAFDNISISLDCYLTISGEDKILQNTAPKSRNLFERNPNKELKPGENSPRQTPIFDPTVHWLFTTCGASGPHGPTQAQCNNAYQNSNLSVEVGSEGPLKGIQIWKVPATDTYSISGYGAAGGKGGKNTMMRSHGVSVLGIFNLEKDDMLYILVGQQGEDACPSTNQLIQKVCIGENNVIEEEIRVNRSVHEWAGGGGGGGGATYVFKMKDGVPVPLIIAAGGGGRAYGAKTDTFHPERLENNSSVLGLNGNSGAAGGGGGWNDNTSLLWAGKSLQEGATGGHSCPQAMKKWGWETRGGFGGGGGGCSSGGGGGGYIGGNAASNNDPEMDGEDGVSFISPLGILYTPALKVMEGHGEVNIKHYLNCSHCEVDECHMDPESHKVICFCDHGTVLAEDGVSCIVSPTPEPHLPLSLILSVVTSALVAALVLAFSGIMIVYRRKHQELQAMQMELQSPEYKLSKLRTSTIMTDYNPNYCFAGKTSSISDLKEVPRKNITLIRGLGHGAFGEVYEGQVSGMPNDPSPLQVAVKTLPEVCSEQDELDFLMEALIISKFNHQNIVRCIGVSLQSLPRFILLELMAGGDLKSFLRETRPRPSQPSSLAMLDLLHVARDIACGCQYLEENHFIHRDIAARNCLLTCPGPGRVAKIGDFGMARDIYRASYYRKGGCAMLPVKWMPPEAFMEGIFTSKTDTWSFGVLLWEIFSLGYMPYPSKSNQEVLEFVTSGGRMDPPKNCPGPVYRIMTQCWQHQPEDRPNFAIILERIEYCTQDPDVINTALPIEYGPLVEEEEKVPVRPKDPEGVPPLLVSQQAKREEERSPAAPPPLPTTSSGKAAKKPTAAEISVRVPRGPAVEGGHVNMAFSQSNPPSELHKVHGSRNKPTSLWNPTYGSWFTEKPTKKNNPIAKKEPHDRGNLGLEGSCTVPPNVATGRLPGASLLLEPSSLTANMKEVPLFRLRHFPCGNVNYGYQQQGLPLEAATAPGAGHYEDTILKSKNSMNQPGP
baculovirus-expressed JAK2 kinase, sequence (O60674 whole entry): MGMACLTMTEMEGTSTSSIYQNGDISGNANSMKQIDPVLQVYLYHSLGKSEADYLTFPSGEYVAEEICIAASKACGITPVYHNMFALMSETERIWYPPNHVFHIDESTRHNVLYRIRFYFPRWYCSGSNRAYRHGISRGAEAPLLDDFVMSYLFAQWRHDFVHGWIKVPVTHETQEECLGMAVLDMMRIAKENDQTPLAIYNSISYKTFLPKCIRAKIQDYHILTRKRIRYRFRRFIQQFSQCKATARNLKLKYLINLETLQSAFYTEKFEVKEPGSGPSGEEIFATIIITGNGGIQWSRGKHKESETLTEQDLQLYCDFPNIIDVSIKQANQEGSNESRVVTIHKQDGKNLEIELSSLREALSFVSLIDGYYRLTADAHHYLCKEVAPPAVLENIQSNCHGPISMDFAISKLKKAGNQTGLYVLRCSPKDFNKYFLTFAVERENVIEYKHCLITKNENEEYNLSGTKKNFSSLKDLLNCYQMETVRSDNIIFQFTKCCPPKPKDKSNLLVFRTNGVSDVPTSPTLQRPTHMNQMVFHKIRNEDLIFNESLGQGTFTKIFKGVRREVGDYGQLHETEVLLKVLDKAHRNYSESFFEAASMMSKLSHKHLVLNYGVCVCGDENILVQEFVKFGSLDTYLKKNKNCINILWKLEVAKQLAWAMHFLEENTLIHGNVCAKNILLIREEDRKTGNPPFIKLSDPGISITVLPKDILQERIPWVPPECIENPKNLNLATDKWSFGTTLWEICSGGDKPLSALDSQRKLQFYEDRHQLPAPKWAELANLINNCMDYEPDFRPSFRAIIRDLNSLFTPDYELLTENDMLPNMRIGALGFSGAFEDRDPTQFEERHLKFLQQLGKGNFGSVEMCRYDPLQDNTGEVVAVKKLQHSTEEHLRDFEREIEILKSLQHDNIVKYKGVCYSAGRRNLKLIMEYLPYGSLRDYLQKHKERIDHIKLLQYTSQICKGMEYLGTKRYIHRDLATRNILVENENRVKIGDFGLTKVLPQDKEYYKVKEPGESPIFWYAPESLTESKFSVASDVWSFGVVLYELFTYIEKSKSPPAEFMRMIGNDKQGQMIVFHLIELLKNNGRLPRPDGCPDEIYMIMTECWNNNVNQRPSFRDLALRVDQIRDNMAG

For `C[C@@H]1CCN(C(=O)CC#N)C[C@@H]1N(C)c1ncnc2[nH]ccc12` [CP-690,550], the “subjects developed polyoma-associated nephropathy” value in data set [1] is recorded as 20%.
The compound `NC(=O)[C@@H]1[C@H](Nc2c(Cl)cnc3[nH]c(-c4ccc(C(=O)NC(CO)C(=O)O)cc4)nc23)[C@H]2C=C[C@@H]1C2` (stereo partly drawn) [Compound CCXXX, 2-(4-(7-((1R,2R,3S,4S)-3-carbamoylbicyclo(2.2.1)hept-5-en-2-ylamino)-6-chloro-3H-imidazo[4,5-b]pyridine-2-yl)benzamido)-3-hydroxypropanoic acid] yielded a melting point of 186 °C. For the same compound, in data set [2], the IC50 was in the range of 100 to 1000 nM. Besides, the IC50 in data set [3] is less than 100 nM.
The matching figures for `COc1cc(N(C)C)ccc1-c1nc2c(N[C@H]3[C@@H](C(N)=O)[C@@H]4C=C[C@H]3C4)c(Br)cnc2[nH]1` [Compound LXXXIV, (1S,2S,3R,4R)-3-[6-Bromo-2-(4-dimethylamino-2-methoxy-phenyl)-3H-imidazo[4,5-b]pyridin-7-ylamino]-bicyclo[2.2.1]hept-5-ene-2-carboxylic acid amide]: 218 to 220 °C, less than 100 nM and less than 100 nM.
The matching figures for `CN(C)c1cccc(-c2nc3c(N[C@H]4[C@@H](C(N)=O)[C@@H]5C=C[C@H]4C5)c(Br)cnc3[nH]2)c1` [Compound LXXVII, (1S,2S,3R,4R)-3-[6-Bromo-2-(3-dimethylamino-phenyl)-3H-imidazo[4,5-b]pyridin-7-ylamino]-bicyclo[2.2.1]hept-5-ene-2-carboxylic acid amide]: 220 to 221 °C, less than 100 nM and less than 100 nM.
For `COC[C@H](O)CN1CCC(c2ccc(-c3nc4c(N[C@H]5[C@@H](C(N)=O)[C@@H]6C=C[C@H]5C6)c(Cl)cnc4[nH]3)c(OC)c2)CC1` [Compound LIV], in that order: 116 to 122 °C, less than 100 nM and less than 100 nM.
For `COc1cc(C2CCN(C[C@@H](O)CO)CC2)ccc1-c1nc2c(N[C@H]3[C@@H](C(N)=O)[C@@H]4C=C[C@H]3C4)c(Cl)cnc2[nH]1` [Compound CXVIII, (1S,2S,3R,4R)-3-(6-Chloro-2-{4-[1-((R)-2,3-dihydroxy-propyl)-piperidin-4-yl]-2-methoxy-phenyl}-3H-imidazo[4,5-b]pyridin-7-ylamino)-bicyclo[2.2.1]hept-5-ene-2-carboxylic acid amide], the melting point is 209 to 211 °C. Besides, the IC50 in data set [2] is less than 100 nM. The IC50 in data set [3] is less than 100 nM.
With `Cn1cc(-c2nc3c(N[C@H]4[C@@H](C(N)=O)[C@@H]5C=C[C@H]4C5)ccnc3[nH]2)cn1` [XCIV, (1S,2S,3R,4R)-3-[2-(1-Methyl-1H-pyrazol-4-yl)-3H-imidazo[4,5-b]pyridin-7-ylamino]-bicyclo[2.2.1]hept-5-ene-2-carboxylic acid amide], the melting point was in the range of 236 to 238 °C. Also, the IC50 in data set [2] is greater than 10000 nM. The IC50 in data set [3] lay in the range of 1000 to 10000 nM.
In the case of `COc1ccc(-c2nc3c(N[C@H]4[C@@H](C(N)=O)[C@@H]5C=C[C@H]4C5)c(Cl)cnc3[nH]2)c(C2CCN(C[C@@H](C)O)CC2)c1` [Compound XXXI], the melting point was 186 to 187 °C. Also, in data set [2], the IC50 lay within 1000 to 10000 nM. Also, the IC50 in data set [3] was in the range of 100 to 1000 nM.
`NC(=O)[C@@H]1[C@H](Nc2c(Br)cnc3[nH]c(-c4cccc(CN5CCOCC5)c4)nc23)[C@H]2C=C[C@@H]1C2` [Compound LXXXI, (1S,2S,3R,4R)-3-[6-Bromo-2-(3-morpholin-4-ylmethyl-phenyl)-3H-imidazo[4,5-b]pyridin-7-ylamino]-bicyclo[2.2.1]hept-5-ene-2-carboxylic acid amide] gave a melting point of 184 to 185 °C. In data set [2], the IC50 was less than 100 nM. For the same compound, the IC50 in data set [3] is less than 100 nM.
In the case of `CC(O)CN1CCN(C(=O)c2cccc(-c3nc4c(N[C@H]5[C@@H](C(N)=O)[C@@H]6C=C[C@H]5C6)c(Cl)cnc4[nH]3)c2)CC1` (stereo partly drawn) [Compound CCXXIII, (1S,2S,3R,4R)-3-(6-chloro-2-(3-(4-(2-hydroxypropyl)piperazine-1-carbonyl)phenyl)-3H-imidazo[4,5-b]pyridine-7-ylamino)pyridin[2.2.1]hept-5-ene-2-carboxamide], the melting point was 183 °C. Moreover, the IC50 in data set [2] lay within 100 to 1000 nM. The IC50 in data set [3] was less than 100 nM.
The matching figures for `COc1cc(N2CCN(C)CC2)ccc1-c1nc2c(N[C@H]3[C@@H](C(N)=O)[C@@H]4C=C[C@H]3C4)c(Br)cnc2[nH]1` [Compound XCVI, (1S,2S,3R,4R)-3-{6-Bromo-2-[2-methoxy-4-(4-methyl-piperazin-1-yl)-phenyl]-3H-imidazo[4,5-b]pyridin-7-ylamino}-bicyclo[2.2.1]hept-5-ene-2-carboxylic acid amide]: 185 to 195 °C, less than 100 nM and less than 100 nM.
Compound `COc1cc(N2CCN(C)CC2)ccc1-c1nc2c(N[C@H]3[C@@H](C(N)=O)[C@@H]4C=C[C@H]3C4)ccnc2[nH]1` [Compound XCV, (1S,2S,3R,4R)-3-{2-[2-Methoxy-4-(4-methyl-piperazin-1-yl)-phenyl]-3H-imidazo[4,5-b]pyridin-7-ylamino}-bicyclo[2.2.1]hept-5-ene-2-carboxylic acid amide] came in with a melting point of 185 to 195 °C. Besides, the IC50 in data set [2] was 1000 to 10000 nM. In addition, the IC50 in data set [3] fell in the range of 1000 to 10000 nM.
`COc1cc(CN2CCN(C[C@@H](C)O)CC2)ccc1-c1nc2c(N[C@H]3[C@@H](C(N)=O)[C@@H]4C=C[C@H]3C4)c(Cl)cnc2[nH]1` [Compound XLIV, (1S,2S,3R,4R)-3-(6-Chloro-2-{4-[4-((R)-2-hydroxypropyl)-piperazin-1-ylmethyl]-2-methoxyphenyl}-3H-imidazo[4,5-b]pyridine-7-ylamino)-bicyclo[2.2.1]hept-5-ene-2-carboxylic acid amide]: the melting point lay in the range of 157 to 159 °C. Further, the IC50 in data set [2] is less than 100 nM. Also, the IC50 in data set [3] is less than 100 nM.
Turning to `NC(=O)[C@@H]1[C@H](Nc2c(Br)cnc3[nH]c(-c4ccsc4)nc23)[C@H]2C=C[C@@H]1C2` [Compound CXI, (1S,2S,3R,4R)-3-(6-Bromo-2-thiophen-3-yl-3H-imidazo[4,5-b]pyridin-7-ylamino)-bicyclo[2.2.1]hept-5-ene-2-carboxylic acid amide], the melting point lay within 238 to 241 °C. Besides, the IC50 in data set [2] is less than 100 nM. In addition, the IC50 in data set [3] was less than 100 nM.
Compound `COc1ccncc1-c1nc2c(N[C@H]3[C@@H](C(N)=O)[C@@H]4C=C[C@H]3C4)c(Br)cnc2[nH]1` [Compound CIII, (1S,2S,3R,4R)-3-[6-Bromo-2-(4-methoxy-pyridin-3-yl)-3H-imidazo[4,5-b]pyridin-7-ylamino]-bicyclo[2.2.1]hept-5-ene-2-carboxylic acid amide] displayed a melting point of 160 °C. For the same compound, the IC50 in data set [2] was less than 100 nM. Further, the IC50 in data set [3] lay in the range of 100 to 1000 nM.
`NC(=O)[C@@H]1[C@H](Nc2c(Cl)cnc3[nH]c(-c4cccc(C(=O)N5CCNC(C(=O)O)C5)c4)nc23)[C@H]2C=C[C@@H]1C2` (stereo partly drawn) [Compound CCXXV, 4-(3-(7-((1R,2R,3S,4S)-3-carbamoylbicyclo[2.2.1]hept-5-en-2-ylamino)-6-chloro-3H-imidazo[4,5-b]pyridine-2-yl)benzoyl)piperazine-2-carboxylic acid] registered a melting point of 261 °C. In data set [2], the IC50 fell in the range of 100 to 1000 nM. Further, in data set [3], the IC50 is less than 100 nM.

As usually defined, the melting point is the temperature, or range, at which the solid turns liquid.
